From publication PMC7284870, “Antimicrobial Peptides from Rat-Tailed Maggots of the Drone Fly Eristalis tenax Show Potent Activity against Multidrug-Resistant Gram-Negative Bacteria” (Microorganisms, 2020)
Values after ≈ are worked out from the molar mass of the structure shown.

Assays:
[1] = system: Salmonella enterica clinical isolates (10); experiment: MIC, clinical isolates; format: cell-based
Method: (§1) The strains that were used in this study (Table 2 and Table S1) were cultivated at 37 °C in cation-adjusted Mueller–Hinton broth (CAMB) in Erlenmeyer flasks, or on the same medium with agar in Petri dishes. Exceptionally, Mycobacterium smegmatis was cultivated at 37 °C in brain heart infusion (BHI) medium that was supplemented with 1% Tween-80 in Erlenmeyer flasks, or on the same medium lacking detergent but with agar in Petri dishes. Strains listed with Robert Koch Institute (RKI) strain numbers are clinical isolates from the RKI strain collection originating from hospitalized patients in Germany. The remaining strains originated from the Sanofi strain collection and they were originally purchased from the American Type Culture Collection or the German Collection of Microorganisms and Cell Cultures. Meropenem/colistin-resistant strains were maintained, as described above, with the appropriate antibiotic added at levels below the minimal inhibitory concentration (MIC).
(§2) The MIC values were determined in 384-well microtiter plates with an assay volume of 20 µL. Immediately before each assay, the cultures of test organisms (bacteria grown for 18 h, Candida albicans and M. smegmatis grown for 48 h) were diluted with the appropriate medium to a density of 1 × 10^6 cells/mL (C. albicans), 1 × 10^5 cells/mL (M. smegmatis) or 5 × 10^5 cells per mL (other species). […] We transferred 2-µL aliquots from this dilution series to new 384-well microtiter plates while using a CyBio-Well 384-channel automated pipettor (Analytic Jena, Jena, Germany) and added 18 µL of the diluted suspension of each test species using a Viafill reagent dispenser (Integra), thus reducing the final peptide concentration 10-fold to the range 1024–0.03125 µg/mL. […] The growth of M. smegmatis was measured using the BacTiter-Glo luminescence test system (Promega, Madison, WI, USA). The growth of the other species was determined by visual inspection of the microtiter plate and turbidimetry based on the optical density at 600 nm (OD600). The MIC was defined as the peptide concentration at which no bacterial growth was observed. We supplemented the test medium with either 150 mM NaCl or 1.25 mM CaCl2 to represent monovalent and divalent cations to simulate physiological conditions.

[2] = system: Escherichia coli clinical isolates (26); experiment: MIC, clinical isolates; format: cell-based
Method: as §1, §2

[3] = system: Citrobacter freundii clinical isolate (1); experiment: MIC, clinical isolates; format: cell-based; conditions: Table S1, RKI 604/16
Method: as §1, §2

[4] = system: Enterobacter cloacae clinical isolates (23); experiment: MIC, clinical isolates; format: cell-based
Method: as §1, §2

[5] = system: Klebsiella oxytoca clinical isolates (2); experiment: MIC, clinical isolates; format: cell-based; conditions: Table S1, RKI 609/16
Method: as §1, §2

[6] = system: Acinetobacter baumannii clinical isolates (20); experiment: MIC, clinical isolates; format: cell-based
Method: as §1, §2

reference strains = experiment: MIC, several reference strains; format: cell-based; conditions: reference strains of Table 2
Method: as §1
The MIC values were determined in 384-well microtiter plates with an assay volume of 20 µL. […] The growth of M. smegmatis was measured using the BacTiter-Glo luminescence test system (Promega, Madison, WI, USA). The growth of the other species was determined by visual inspection of the microtiter plate and turbidimetry based on the optical density at 600 nm (OD600). […]

E. coli ATCC25922 = experiment: Checkerboard assay EtDip with colistin; format: cell-based, Escherichia coli; conditions: CAMB, + 150 mM NaCl, + 1.25 mM CaCl2; FICindex ≤0.5 = synergy
Method: (§3) The interactions between pairs of compounds were analyzed using checkerboard assays in a 384-well microtiter plate with an assay volume of 20 µL. Immediately before the test runs, the bacterial cultures were diluted in CAMB to a density of 5 × 10^5 cells/mL. The two compounds for combinatorial testing were arrayed as 10-fold concentrated serial dilutions with respect to the final concentration, vertically for one compound and horizontally for the other, in the same 384-well microplate. Subsequently, we transferred 2-µL aliquots to new 384-well microtiter plates, and growth inhibition in each well was determined, as described for the MIC values above. Fractional inhibitory concentration (FIC) and FICindex values for each combination were calculated using the following formulae, where a
(§4) FICindex ≤0.5 indicates synergy and a FICindex >4 indicates antagonism.
(§5) FIC for compound A = MIC of compound A in combination/MIC of compound A
(§6) FIC for compound B = MIC of compound B in combination/MIC of compound B

P. aeruginosa ATCC 27853 = experiment: Checkerboard assay EtDip with colistin; format: cell-based, Pseudomonas aeruginosa; conditions: CAMB and + 150 mM NaCl; not in the presence of CaCl2
Method: as §3, §4, §5, §6

C[C@@H](O)[C@H]1C(=O)N2C(C(=O)O)=C(S[C@@H]3CN[C@H](C(=O)N(C)C)C3)[C@H](C)[C@H]12 [MEM, meropenem] was tested, and the MIC ([1]; Table S1, RKI 205/14) was at most 0.5 µg/mL, the MIC ([1]; Table S1, RKI 206/14) was at most 0.5 µg/mL and the MIC ([1]; Table S1, RKI 270/14) was at most 0.5 µg/mL. It also gave an MIC ([1]; Table S1, RKI 277/14) of at most 0.5 µg/mL, an MIC ([1]; Table S1, RKI 419/14) of at most 0.5 µg/mL and an MIC ([1]; Table S1, RKI 436/14) of at most 0.5 µg/mL. The MIC ([1]; Table S1, RKI 437/14) was at most 0.5 µg/mL, the MIC ([1]; Table S1, RKI 532/14-1) was at most 0.5 µg/mL and the MIC ([1]; Table S1, RKI 533/14) was at most 0.5 µg/mL. For the same molecule, the MIC ([1]; Table S1, RKI 583/14) was at most 0.5 µg/mL, the MIC ([2]; Table S1, RKI 75/15) was over 64 µg/mL and the MIC ([2]; Table S1, RKI 95/15) was at most 0.5 µg/mL. It also gave an MIC ([2]; Table S1, RKI 97/15) of at most 0.5 µg/mL, an MIC ([2]; Table S1, RKI 314/16) of at most 0.5 µg/mL and an MIC ([2]; Table S1, RKI 317/16) of at most 0.5 µg/mL. It also gave an MIC ([2]; Table S1, RKI 330/16) of at most 0.5 µg/mL, an MIC ([2]; Table S1, RKI 443/16) of 4 µg/mL (≈ 10.4 µM) and an MIC ([2]; Table S1, RKI 462/16) of at most 0.5 µg/mL. It also gave an MIC ([2]; Table S1, RKI 513/16) of at most 0.5 µg/mL, an MIC ([2]; Table S1, RKI 514/16) of at most 0.5 µg/mL and an MIC ([2]; Table S1, RKI 515/16) of at most 0.5 µg/mL. The MIC ([2]; Table S1, RKI 521/16) was at most 0.5 µg/mL, the MIC ([2]; Table S1, RKI 524/16) was at most 0.5 µg/mL and the MIC ([2]; Table S1, RKI 525/16) was at most 0.5 µg/mL. It also gave an MIC ([2]; Table S1, RKI 581/16) of at most 0.5 µg/mL, an MIC ([2]; Table S1, RKI 582/16) of at most 0.5 µg/mL and an MIC ([2]; Table S1, RKI 583/16) of at most 0.5 µg/mL. For the same molecule, the MIC ([2]; Table S1, RKI 590/16) was at most 0.5 µg/mL, the MIC ([2]; Table S1, RKI 592/16) was at most 0.5 µg/mL and the MIC ([2]; Table S1, RKI 593/16) was at most 0.5 µg/mL. For the same molecule, the MIC ([2]; Table S1, RKI 602/16) was at most 0.5 µg/mL, the MIC ([2]; Table S1, RKI 607/16) was 8 µg/mL (≈ 20.9 µM) and the MIC ([2]; Table S1, RKI 867/14) was 8 µg/mL (≈ 20.9 µM). For the same molecule, the MIC ([2]; Table S1, RKI 1023/14) was at most 0.5 µg/mL, the MIC [3] was over 64 µg/mL and the MIC ([4]; Table S1, RKI 5/14) was 4 µg/mL (≈ 10.4 µM). It also gave an MIC ([4]; Table S1, RKI 33/16) of 8 µg/mL (≈ 20.9 µM), an MIC ([4]; Table S1, RKI 34/16) of 32 µg/mL (≈ 83.4 µM) and an MIC ([4]; Table S1, RKI 37/14) of at most 0.5 µg/mL. It also gave an MIC ([4]; Table S1, RKI 76/15) of at most 0.5 µg/mL, an MIC ([4]; Table S1, RKI 113/16) of 2 µg/mL (≈ 5.22 µM) and an MIC ([4]; Table S1, RKI 136/15) of over 64 µg/mL. For the same molecule, the MIC ([4]; Table S1, RKI 141/15) was 2 µg/mL (≈ 5.22 µM), the MIC ([4]; Table S1, RKI 210/15) was at most 0.5 µg/mL and the MIC ([4]; Table S1, RKI 215/15) was at most 0.5 µg/mL. The MIC ([4]; Table S1, RKI 243/15) was at most 0.5 µg/mL, the MIC ([4]; Table S1, RKI 287/13) was 64 µg/mL (≈ 167 µM) and the MIC ([4]; Table S1, RKI 308/13) was 8 µg/mL (≈ 20.9 µM). For the same molecule, the MIC ([4]; Table S1, RKI 348/15) was 1 µg/mL (≈ 2.61 µM), the MIC ([4]; Table S1, RKI 361/13) was at most 0.5 µg/mL and the MIC ([4]; Table S1, RKI 460/16) was 64 µg/mL (≈ 167 µM). For the same molecule, the MIC ([4]; Table S1, RKI 466/13) was 16 µg/mL (≈ 41.7 µM), the MIC ([4]; Table S1, RKI 506/15) was 16 µg/mL (≈ 41.7 µM) and the MIC ([4]; Table S1, RKI 546/13) was at most 0.5 µg/mL. The MIC ([4]; Table S1, RKI 571/13) was at most 0.5 µg/mL, the MIC ([4]; Table S1, RKI 733/14) was 64 µg/mL (≈ 167 µM) and the MIC ([4]; Table S1, RKI 766/15) was at most 0.5 µg/mL. The MIC [5] was 16 µg/mL (≈ 41.7 µM), the MIC ([6]; Table S1, RKI 3/15) was 32 µg/mL (≈ 83.4 µM) and the MIC ([6]; Table S1, RKI 4/15) was 32 µg/mL (≈ 83.4 µM). For the same molecule, the MIC ([6]; Table S1, RKI 11/16) was over 64 µg/mL, the MIC ([6]; Table S1, RKI 12/16) was 64 µg/mL (≈ 167 µM) and the MIC ([6]; Table S1, RKI 13/16) was over 64 µg/mL. For the same molecule, the MIC ([6]; Table S1, RKI 14/16) was over 64 µg/mL, the MIC ([6]; Table S1, RKI 16/15) was over 64 µg/mL and the MIC ([6]; Table S1, RKI 16/16) was over 64 µg/mL. For the same molecule, the MIC ([6]; Table S1, RKI 30/16) was over 64 µg/mL, the MIC ([6]; Table S1, RKI 32/16) was 64 µg/mL (≈ 167 µM) and the MIC ([6]; Table S1, RKI 70/16) was over 64 µg/mL. It also gave an MIC ([6]; Table S1, RKI 230/15) of over 64 µg/mL, an MIC ([6]; Table S1, RKI 231/15) of 64 µg/mL (≈ 167 µM) and an MIC ([6]; Table S1, RKI 271/16) of over 64 µg/mL. The MIC ([6]; Table S1, RKI 272/16) was over 64 µg/mL, the MIC ([6]; Table S1, RKI 377/15) was 8 µg/mL (≈ 20.9 µM) and the MIC ([6]; Table S1, RKI 523/16) was 32 µg/mL (≈ 83.4 µM). It also gave an MIC ([6]; Table S1, RKI 584/16) of at most 0.5 µg/mL and an MIC ([6]; Table S1, RKI 596/16) of over 64 µg/mL.
For “QFNMQGGGSPRQGFDVNANARFPIWQSQNARNSVHGTASYAQHLGGPYGNSRPNFGGGLQFT [EtDip, diptericin-like peptide of Eristalis tenax]”, the “activity against the test strains” value (reference strains) was “no activity”, the “interaction with colistin (FICindex)” value (E. coli ATCC25922) was “Synergistic interactions” and the “interaction with colistin (FICindex)” value (P. aeruginosa ATCC 27853) was “Synergistic interactions”.
